What was measured:
[1] = system: HeLa Cells; assay: GFP plasmid transfection with DOTMA/DOPE plus surface ligand peptide, fluorescent plate reader (Example 1); format: cell-based; conditions: DOTMA/DOPE + peptide linked to R12 or K16; EF1Alpha eGFP plasmid; 42 hours
[2] = system: HuVec Cells; assay: as above; format: cell-based; conditions: DOTMA/DOPE + peptide linked to R12 or K16; EF1Alpha eGFP plasmid; 42 hours
Outline: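 HuVEC cells in 96 well plates at 70% confluence were transfected with EF1Alpha eGFP plasmid using a 1:1 molar DOTMA/DOPE lipid mixed with a surface ligand peptide carrying a covalently attached nucleic acid binding moiety. Complexes formed for 10 minutes, 0.01 mL went to each well, cells were incubated 42 hours at 37° C., and fluorescence was read on a plate reader.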

[3] = system: Human Fibroblast Cells; assay: as above; format: cell-based; conditions: DOTMA/DOPE + peptide linked to R12 or K16; EF1Alpha eGFP plasmid; 42 hours
Outline: (§1)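 DOTMA/DOPE (1:1 molar) plus peptide bearing a poly-Arg or poly-Lys tag was complexed 10 min with EF1alpha eGFP plasmid in OptiMEM, then added to 70%-confluent cells (0.01 mL fibroblasts; 0.02 mL C2C12, Jurkat). After 42 h at 37 °C, GFP was read by plate reader and compared with DOTMA without ligand.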

[4] = system: Jurkat Cells; assay: as above; format: cell-based; conditions: DOTMA/DOPE + peptide linked to R12 or K16; EF1Alpha eGFP plasmid; 42 hours
Outline: as §1

[5] = system: NL-1 iPS Cells; assay: as above; format: cell-based; conditions: DOTMA/DOPE + peptide linked to R12 or K16; EF1Alpha eGFP plasmid; 42 hours
[6] = system: C2C12 Cells; assay: as above; format: cell-based, mouse; conditions: DOTMA/DOPE + peptide linked to R12 or K16; EF1Alpha eGFP plasmid; 42 hours
Outline: as §1

[7] = system: HeLa Cells; assay: GFP transfection with DOTMA/SEQ ID NO: 72 (fusogenic peptide)/peptide compared with Lipofectamine 2000; format: cell-based
Outline: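 DOTMA/DOPE (1:1 molar) lipid mixed with polyarginine- or polylysine-tagged cell-surface-ligand peptide, complexed 10 min with EF1alpha eGFP plasmid at 10 μg/mL in OptiMEM, fusogenic peptide at 0.1 mg/mL final; HeLa cells ~70% confluent given 0.01 mL complex. GFP read by fluorescence plate reader and microscopy (% cells transfected) after 42 h at 37° C; Lipofectamine 2000 as comparator.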

[8] = system: some examined cell types; assay: Summary of Example 1: transfection expression and % cells transfected over the no peptide control; format: cell-based; conditions: on some examined cell types
Outline: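 Cells at 70% confluence received DNA complexes of EF1Alpha eGFP plasmid with DOTMA/DOPE (1:1) plus oligo-Arg- or oligo-Lys-tagged peptide ligands, formed 10 min at room temperature. After 42 h at 37 °C, 5% CO2, GFP read by plate reader and % transfected cells judged microscopically, relative to lipid without peptide.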

[9] = 0.1 μL of DOTMA/SEQ ID NO: 72/Peptide in well of a 96 well plate
[10] = 0.2 μL of DOTMA/SEQ ID NO: 72/Peptide in well of a 96 well plate
[11] = 0.3 μL of DOTMA/SEQ ID NO: 72/Peptide in well of a 96 well plate
[12] = 0.4 μL of DOTMA/SEQ ID NO: 72/Peptide in well of a 96 well plate

Substance	Relative Fluorescence of Transfection of HeLa Cells (RF) [1]	Relative Fluorescence of Transfection of HuVec Cells (RF) [2]	Relative Fluorescence of Transfection of Human Fibroblast Cells (RF) [3]	Relative Fluorescence of Transfection of Jurkat Cells (RF) [4]	Relative Fluorescence of Transfection of NL-1 iPS Cells (RF) [5]	Relative Fluorescence of Transfection of C2C12 Cells (RF) [6]	Relative Fluorescence DOTMA/SEQ ID NO: 72/Peptide, HeLa Cells (RF) [7, 9]	Relative Fluorescence DOTMA/SEQ ID NO: 72/Peptide, HeLa Cells (RF) [7, 10]	Relative Fluorescence DOTMA/SEQ ID NO: 72/Peptide, HeLa Cells (RF) [7, 11]	Relative Fluorescence DOTMA/SEQ ID NO: 72/Peptide, HeLa Cells (RF) [7, 12]	transfection expression and % cells transfected over the no peptide control [8]
350 (SIGFRGDGQTC) [compound 350]	13313	13163	7105	9184	19132	2631	24092	23238	19802	22255	increased transfection expression and the % cells transfected
375 (LAGSCLPVFSTL) [compound 375]	41076	5542	7305	4272	5196	5633	22457	30891	34887	29024	increased transfection expression and the % cells transfected
355 (FRHRNRKGY) [compound 355]	32628	14810	6821	8132	7910	1900	18362	27990	22367	18289	increased transfection expression and the % cells transfected
381 (TAGSCL) [compound 381]	22652	17542	9953	10806	9644	8834	34187	37463	27007	20088	increased transfection expression and the % cells transfected
360 (GDLGRPGRKGRPGPP) [compound 360]	8516	24042	5347	16607	27572	2090	9946	11168	10381	8995	increased transfection expression and the % cells transfected
326 (RLVSYSGVLFFLK) [compound 326]	18946	4932	3070	3018	9239	8553	6887	9487	10330	9227	increased transfection expression and the % cells transfected

Reference: patent US20250154525A1, “PLANT VIRUS MOVEMENT PROTEINS AND METHODS OF USING SAME” (Molecular Transfer, Inc., priority 2016, published 2025)
